Results: ChEMBL document CHEMBL4364294 (J Med Chem, 2019)

Assay: Intrinsic clearance in human liver microsomes
Format: ADME, Microsome
Conditions: read-out: CLH

predicted hepatic clearance: 14.6 mL/min/kg
SMILES: OC(CC1c2ccccc2-c2cncn21)C1CCC(F)(F)CC1 (stereo unspecified)
